Here are results for 15 molecules from publication PMC6504873, “High-throughput screening of the Plasmodium falciparum cGMP-dependent protein kinase identified a thiazole scaffold which kills erythrocytic and sexual stage parasites” (Scientific Reports, 2019).

In this assay the target is T1, HuPKGIα (Homo sapiens, UniProt Q13976).
T1 construct: His6; host or cells: Spodoptera frugiperda 21 cells (baculovirus)
T1 sequence (Q13976 1-671): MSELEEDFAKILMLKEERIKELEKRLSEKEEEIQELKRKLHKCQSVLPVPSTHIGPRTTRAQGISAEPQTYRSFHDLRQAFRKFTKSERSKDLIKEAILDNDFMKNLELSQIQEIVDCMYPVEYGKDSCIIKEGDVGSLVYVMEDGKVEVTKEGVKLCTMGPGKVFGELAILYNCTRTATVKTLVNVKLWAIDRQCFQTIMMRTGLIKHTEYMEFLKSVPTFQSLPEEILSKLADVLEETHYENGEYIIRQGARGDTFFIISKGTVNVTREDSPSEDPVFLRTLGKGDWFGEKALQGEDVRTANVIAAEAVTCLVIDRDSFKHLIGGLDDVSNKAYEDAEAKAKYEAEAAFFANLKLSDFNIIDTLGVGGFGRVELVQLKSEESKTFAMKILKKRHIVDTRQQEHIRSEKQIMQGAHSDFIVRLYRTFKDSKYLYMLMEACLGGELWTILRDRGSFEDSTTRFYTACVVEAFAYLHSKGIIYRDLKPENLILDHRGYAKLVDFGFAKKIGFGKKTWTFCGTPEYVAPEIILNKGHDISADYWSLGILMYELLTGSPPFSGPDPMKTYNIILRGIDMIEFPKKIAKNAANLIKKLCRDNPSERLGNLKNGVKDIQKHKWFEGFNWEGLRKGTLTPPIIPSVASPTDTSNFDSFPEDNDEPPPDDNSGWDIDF
The assay is described as follows: Kinase Glo enzymatic assay, human PKG. Type of assay: biochemical. Conditions: human PKGIα; read-out: Hu PKGIα. As to the method: To identify new PKG inhibitor scaffolds, the 1.7 million GlaxoSmithKline Full Diversity collection was tested at a single final concentration of 10 μM against recombinant full length wild type (WT) PfPKG using a Kinase Glo-based assay (Promega). […] Fresh samples of these primary hits were tested in duplicate against WT PfPKG and also against human PKGIα (HuPKGIα) (Supplementary Fig. 1) at a final concentration of 10 μM (confirmation step).
The expression vector encoding His6-cGK1α (HuPKGIα) was used to generate recombinant baculoviruses using the Bac-to-Bac system (Invitrogen) following the manufacturer’s protocol. These baculoviruses were used to infect Spodoptera frugiperda 21 cells (1.5 × 10^6/ml) at a multiplicity of infection of 5 and the infected cells were harvested 48 hours post-infection. His6-cGK1α was purified on Cobalt agarose and dialysed into 50 mM Tris-HCl pH 7.5, 0.1 mM EGTA, 150 mM NaCl, 270 mM sucrose, 0.03% Brij-35, 0.1% 2-mercaptoethanol, 1 mM benzamidine, 0.1 mM phenylmethylsulfonyl fluoride (PMSF).
Initial optimization of the PKG assay was performed manually in 384-well plates and analysed with GraFit 7. The buffer for all assays was 25 mM HEPES pH 7.3 (GIBCO), 10 mM MgCl2 (Sigma), 2 mM DTT (Sigma), 0.01 mM cGMP (Sigma), 0.1 mg/ml BSA (Ambion). Enzymatic activity was tested using a luminescence-based kit (Promega KinaseGlo). Addition of the first reagent depletes the unused ATP and addition of the second reagent converts ADP (product of the kinase reaction) to ATP, which is then measured through a luciferin/luciferase reaction. The amount of luminescence is directly proportional to ATP turnover by the kinase. The kit was chosen because it can be miniaturized to small volumes (i.e. 4 µl) in 1536-well plates, for use in HTS.
We used PKA peptide substrate (SCP0212, Sigma-Aldrich) for WT and TQ PfPKG, dissolved in milliQ water at a final concentration of 5 mM, and Long S6 peptide substrate (produced at the University of Dundee, sequence […]) for HuPKGIα, dissolved in water at a final concentration of 30 mM.
We calculated the Michaelis-Menten (Km) constant for ATP and peptide substrate (PKA or Long S6) for all enzymes using GraphPad Prism (Supplementary Figs 2 and 3 and Supplementary Table 3). In order to identify different types of PKG inhibitors, including ATP competitive or non-competitive inhibitors, as well as inhibitors that bind to the peptide substrate pocket, we performed all assays using ATP and peptide substrate at a concentration equal to the Km. We also determined enzyme activity by calculating ATP turnover (Kcat) over the Km (Supplementary Table 3). The Kcat was calculated as (Vmax*slope)/[E] where Vmax is the maximum velocity and [E] is the concentration of the enzyme.
The plates containing the compounds were prepared at GSK in Upper Providence or Stevenage. Compounds were tested at a single final concentration of 10 µM or in a dose response with a range of concentrations starting from 100 μM to 1.6 nM (1 in 3 serial dilutions). Compounds were dispensed in the plates at the required concentration in a 40 nl volume. All plates (1536-well white Greiner) contained 40 nl of DMSO in lanes 11 and 12 (control 1, 100% enzyme activity) and were empty in lanes 35 and 36 (control 2, 0% enzyme activity). The plates were removed from −20 °C 1 hour before starting the assay. Using a Multidrop Combi dispenser (Thermo Scientific), 2 µl of the buffer containing ATP and the substrate were added to all wells then 2 µl of buffer only were added to column 35 and 36. Finally 2 µl of buffer containing the enzyme were dispensed in all the plate wells except for lanes 35 and 36. After 1 hour incubation at 21 °C 2 µl of ADP-Glo reagent (Promega KinaseGlo kit), previously supplemented with 0.02% CHAPS (Sigma), were added to all wells.
On the technique in general: In Kinase-Glo more light means more ATP remaining.
Regarding `CCn1cc(-c2ccncn2)c(-c2cccc(NS(=O)(=O)c3cc(F)ccc3F)c2)n1` [Compound 2], the IC50 was more than 100 µM.
In the case of `Cc1ccc(S(C)(=O)=O)cc1Nc1nccc(-c2sc(CC(N)=O)nc2-c2ccccc2)n1` [Compound 3], the IC50 was more than 100 µM.
As to `CC(C)(CN)c1cc(-c2ccc(Cl)c(O)c2)c(-c2ccncc2)o1` [Compound 4], the IC50 amounted to 15 µM.
Under `CCn1c(-c2nonc2N)nc2c(-c3ccccc3)ncc(CN(C)C3CCN(C)CC3)c21` [Compound 5] stands 40.3 µM.
`CNS(=O)(=O)c1cccc(Nc2ccnc(Nc3cccc(S(=O)(=O)NC)c3)n2)c1` [Compound 6]: the IC50 turned out to be 44.2 µM.
On to `COc1ccc(-c2c(-c3cccc(C(=O)N4CCN(C)CC4)c3)oc3ncnc(N)c23)cc1` [Compound 7], for which the IC50 is more than 100 µM.
The value for `COc1ccc(CCNC(=O)CSc2ncnc3[nH]ncc23)cc1OC` [Compound 8] was more than 100 µM; that for `COc1cccc(Nc2nc(-c3ccncc3)cc(N3CCN(C)CC3)n2)c1` [Compound 9] was more than 100 µM.
The value for `COc1cc(CS(C)(=O)=O)ccc1Nc1nc(Nc2cc(F)ccc2C(N)=O)c2cc[nH]c2n1` [Compound 10] was more than 100 µM; that for `O=C(N[C@@H](CO)c1ccccc1)c1ccc2cncc(-c3cn[nH]c3)c2n1` [Compound 11] was 6.1 µM.
Turning to `NCCNCc1ccc(-c2cc3ccncc3cc2OC2CCNCC2)s1` [Compound 12], the IC50 was found to be 13.8 µM.
`CNCCOc1cnc(-c2ccoc2C)c(-c2ccc3cnccc3c2)c1` [Compound 13]: the IC50 stood at 7.4 µM.
The value for `O=C(c1cccc(OCc2cccnc2)c1)N1CCc2sccc2C1CN1CCCCC1` (stereo not drawn) [Compound 14] was more than 100 µM; that for `Nc1ccc2c(-c3ccncc3)c(-c3ccc(Cl)c(O)c3)[nH]c2n1` [Compound 15] was 45.2 µM; that for `Nc1nc(Nc2cccc3cnccc23)nn1C(=O)C1CCCCC1` [Compound 16] was 22.4 µM.
